# BindingDB's records for doi:10.7270/Q2KP80J0 (The Scripps Research Institute Molecular Screening Center, 2007)
# Biological target: T1, Ephrin type-B receptor 4 (Homo sapiens, UniProt P54760)
# T1 sequence (P54760 whole entry): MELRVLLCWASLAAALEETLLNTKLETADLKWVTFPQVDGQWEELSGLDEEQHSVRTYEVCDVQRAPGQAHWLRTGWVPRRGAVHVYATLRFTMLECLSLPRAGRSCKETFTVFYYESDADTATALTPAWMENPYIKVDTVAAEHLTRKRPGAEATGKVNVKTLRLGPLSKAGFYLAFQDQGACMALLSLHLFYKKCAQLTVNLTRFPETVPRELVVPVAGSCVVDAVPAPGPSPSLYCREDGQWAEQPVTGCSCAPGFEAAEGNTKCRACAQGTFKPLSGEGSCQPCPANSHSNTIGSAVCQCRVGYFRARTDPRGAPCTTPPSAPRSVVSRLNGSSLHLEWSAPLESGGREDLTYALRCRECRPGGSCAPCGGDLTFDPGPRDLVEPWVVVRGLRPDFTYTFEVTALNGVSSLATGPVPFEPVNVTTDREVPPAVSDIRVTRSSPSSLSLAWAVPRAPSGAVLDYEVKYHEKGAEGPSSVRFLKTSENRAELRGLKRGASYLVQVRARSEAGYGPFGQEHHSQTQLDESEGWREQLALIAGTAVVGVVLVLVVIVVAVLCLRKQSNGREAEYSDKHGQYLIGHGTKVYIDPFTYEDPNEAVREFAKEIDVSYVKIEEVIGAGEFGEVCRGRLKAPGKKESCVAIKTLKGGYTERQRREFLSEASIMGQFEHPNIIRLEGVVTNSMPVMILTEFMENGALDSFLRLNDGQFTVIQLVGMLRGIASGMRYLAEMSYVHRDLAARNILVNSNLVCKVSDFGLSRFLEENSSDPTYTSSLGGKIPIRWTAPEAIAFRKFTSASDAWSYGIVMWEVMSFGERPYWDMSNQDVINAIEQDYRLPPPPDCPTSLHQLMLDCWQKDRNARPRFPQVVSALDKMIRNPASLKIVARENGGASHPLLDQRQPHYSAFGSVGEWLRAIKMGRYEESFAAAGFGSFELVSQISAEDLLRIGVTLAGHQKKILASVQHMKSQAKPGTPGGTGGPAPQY
# Experiment: EphB4-ephrin-B2 interaction antagonists, dose response, biochemical, TNYL-RAW peptide displacement (AID 835)
row,IC50 [µM],SMILES
1,> 79.4,COc1cccc(OC)c1-c1nn2c(-c3cc(-c4ccccc4)n[nH]3)nnc2s1 [MLS000083027]
2,> 79.4,CC(=O)Nc1cccc(NC(=O)CSc2nnc(Cc3cccn3C)n2-c2ccc(C)cc2)c1 [MLS000092946]
3,> 79.4,CC(=O)Nc1ccc(OCC=C(Cl)Cl)cc1 [MLS000107919]
4,> 79.4,O=C(Nc1ccccc1C(=O)N1CCOCC1)c1ccncc1 [MLS000109827]
5,> 79.4,O=C(Nc1ccc2c(c1)OCO2)C1CC(c2ccc(F)cc2)=NO1 (stereo unspecified) [MLS000520439]
6,> 79.4,COc1ccc(Cn2nnnc2C(c2cc3ccc(OC)cc3nc2O)N2CCC(C)CC2)cc1 (stereo unspecified) [MLS000523343]
7,> 79.4,COc1ccc(C(C)NC(=O)c2ccccc2)cc1 (stereo unspecified) [MLS000525960]
8,> 79.4,COCc1nnc(NC(=O)CC(c2ccccc2)c2ccccc2)s1 [MLS000528014]
9,> 79.4,CN(C(=O)N1CCN(c2ccccn2)CC1)c1ccccc1 [MLS000534907]
10,> 79.4,O=C(N/N=C/c1ccncc1)c1cc([N+](=O)[O-])cc([N+](=O)[O-])c1O [MLS000541056]
11,> 79.4,CCOc1ccc(C(CCc2ccccc2)NC(=O)c2ccccc2F)cc1OCC (stereo unspecified) [MLS000544814]
12,> 79.4,O=[N+]([O-])/C=C/c1cn(Cc2ccc(F)cc2)c2ccccc12 [MLS000577100]
13,> 79.4,CCOc1ccc(NC(=O)C(C)Oc2ccccc2C(=O)Nc2ccc(C)c(Cl)c2)cc1 (stereo unspecified) [MLS000581136]
14,5.3,COCCCNc1c(O)nc2cccc3c2c1-c1ccccc1C3=O [SMR000017250]
15,0.8,O=C1c2ccccc2-c2onc3ccc(NCCCn4ccnc4)c1c23 [SMR000044769]
16,> 79.4,O=C(Nc1nc2n(n1)C(c1ccc(Cl)cc1)CC(c1ccc(Cl)cc1)N2)c1ccco1 (stereo unspecified) [SMR000045014]
17,11.1,CCn1c(CSc2nnc(-c3cccnc3)n2-c2ccccc2C)nc2cc(C(=O)O)ccc21 [SMR000067019]
18,> 79.4,O=C1Nc2ccccc2/C1=N/Nc1nc2ccccc2s1 [SMR000123161]
19,> 79.4,Cc1[nH]c2ccccc2c1/C=C1\N=C(c2ccc(C(F)(F)F)cc2)OC1=O [SMR000152363]
20,> 79.4,Oc1ccccc1C=Nn1c(-c2cccs2)n[nH]c1=S [SMR000168763]
21,> 79.4,"COC(=O)CSC1=NC2=C(C(=O)CCC2)C(c2ccc(C)cc2)C1C#N (stereo unspecified) [methyl 2-[[3-cyano-4-(4-methylphenyl)-5-oxo-4,6,7,8-tetrahydro-1H-quinolin-2-yl]sulfanyl]acetate]"
